Data on 35 molecules can be found in ChEMBL document CHEMBL4483862, “Open-source discovery of chemical leads for next-generation chemoprotective antimalarials” (2018).

SMILES strings stand for the structures. A value given as a limit tells only on which side of the number the result lay.

For the assay, the system named is Plasmodium berghei. In words: Luciferase/luciferin-expressing antifolate-resistant parasites were used to infect a culture of HepG2 cells that were pre-incubated with compounds. Infected hepatocytes emit light due to the luciferase reaction. Assay results are presented as the percent inhibition of light emission compared to control. […]. Particulars: sporozoite; for IC90: read-out: LUCIFERASE INFECTION ASSAY - IC90. In kind it is functional.

[1] abbreviates: read-out: LUCIFERASE INFECTION ASSAY - IC50.

Regarding `Cc1nnc(S(=O)(=O)CC(=O)N2CCc3ccccc32)n1C`, the IC90 (commonly the concentration at which the effect reaches the 90% level) is over 10 µM. Further, under “FFLUC_HILL_SLOPE 11.6, FFLUC_R_SQUARED 0.688, read-out: LUCIFERASE INFECTION ASSAY - IC50”, the IC50 (commonly the concentration needed to halve the response being measured) is over 10 µM.
Regarding `COc1cc(OC)cc(-c2cn3c(-c4ccc5ncccc5c4)cnc3cn2)c1`, the IC90 was found to be 6.15 µM. Further, the IC50 (HEPG2TOX_HILL_SLOPE 2.4, HEPG2TOX_R_SQUARED 0.938, PBLUC_HILL_SLOPE 4.1, PBLUC_R_SQUARED 0.34, read-out: LUCIFERASE INFECTION ASSAY - IC50) turned out to be 3.6 µM.
In the case of `Cc1cc(/C=N/Nc2nc3ccccc3[nH]2)c(C)n1-c1ccc(Cl)c(C(F)(F)F)c1`, the IC90 worked out at 4.05 µM. Besides, the IC50 (FFLUC_HILL_SLOPE 2.14, FFLUC_R_SQUARED 0.676, PBLUC_HILL_SLOPE 2.82, PBLUC_R_SQUARED 0.68, read-out: LUCIFERASE INFECTION ASSAY - IC50) was 1.86 µM.
`COc1ccc(C(C)NC(=O)CCCN2C(=O)c3ccccc3C2=O)cc1F` (stereo not given): the concentration for an effect of 90% (IC90) is over 10 µM. The IC50 under setting [1] was over 10 µM.
For `Cc1c(-c2ccccc2)nc2ccccc2c1C(=O)Nc1ccc2c(c1)OCCO2`, the IC90 was 6.7 µM. The IC50 (FFLUC_HILL_SLOPE 1.33, FFLUC_R_SQUARED 0.515, PBLUC_HILL_SLOPE 1.27, PBLUC_R_SQUARED 0.667, read-out: LUCIFERASE INFECTION ASSAY - IC50) came out at 1.19 µM.
For the molecule `CNc1nc2cnc(Nc3cc(C(F)(F)F)ccc3F)cc2n1Cc1ccco1`, the IC90 was over 10 µM. The half-maximal inhibitory concentration (IC50) (HEPG2TOX_HILL_SLOPE 10.6, HEPG2TOX_R_SQUARED 0.165, read-out: LUCIFERASE INFECTION ASSAY - IC50) was over 10 µM.
Regarding `N#Cc1ccccc1Sc1ccccc1C(=O)OCc1cc(=O)oc2cc(Br)ccc12`, the IC90 was over 10 µM. The IC50 (HEPG2TOX_HILL_SLOPE 1.78, HEPG2TOX_R_SQUARED 0.958, PBLUC_HILL_SLOPE 3.89, PBLUC_R_SQUARED 0.0824, read-out: LUCIFERASE INFECTION ASSAY - IC50) came to 9.13 µM.
`Cc1cc(C)cc(N(CCC#N)C(=O)CSc2nc3cc(Cl)ccc3c(=O)n2Cc2ccccc2)c1`: the IC90 was over 10 µM. For the same molecule, under setting [1], the IC50 was over 10 µM.
Regarding `Cc1onc(-c2c(Cl)cccc2Cl)c1NC(=O)Nc1cscc1S(=O)(=O)C(C)C`, the IC90 was over 6.96 µM. Under “FFLUC_HILL_SLOPE 2.28, FFLUC_R_SQUARED 0.234, read-out: LUCIFERASE INFECTION ASSAY - IC50”, the IC50 is over 6.96 µM.
`CC1=C/C(=N\NC(=O)c2ccc(Br)cc2)CC(C)(C)C1`: the IC90 was over 10 µM. Further, the IC50 (PBLUC_HILL_SLOPE 2.58, PBLUC_R_SQUARED 0.715, read-out: LUCIFERASE INFECTION ASSAY - IC50) was 6.68 µM.
As to `O=C(Nc1ccc(Cl)cc1)c1cc(-c2ccccc2)c(C(F)(F)F)s1`, the IC90 was determined as 6.06 µM. For the same molecule, under “HEPG2TOX_HILL_SLOPE 3.44, HEPG2TOX_R_SQUARED 0.918, PBLUC_HILL_SLOPE 6.48, PBLUC_R_SQUARED 0.174, read-out: LUCIFERASE INFECTION ASSAY - IC50”, the IC50 came to 4.32 µM.
`CCN(CC)S(=O)(=O)c1cccc(-c2nnc(SCC(=O)N3CCc4ccccc43)n2-c2ccccc2)c1`: the IC90 was over 10 µM. The IC50 under setting [1] was over 10 µM.
For the molecule `Cc1ccc2nc3ccccc3c(N3CCN(C(=O)c4ccccc4)CC3)c2c1`, the IC90 is 3.42 µM. Further, the half-inhibitory concentration (IC50) (PBLUC_HILL_SLOPE 1, PBLUC_R_SQUARED 0.729, read-out: LUCIFERASE INFECTION ASSAY - IC50) worked out at 0.384 µM.
As for `Clc1ccc(-c2cc(-c3csc(Nc4ccccc4Cl)n3)on2)c(Cl)c1`, the IC90 was over 7.81 µM. The half-maximal inhibitory concentration (IC50) (HEPG2TOX_HILL_SLOPE 18.2, HEPG2TOX_R_SQUARED 0.802, PBLUC_HILL_SLOPE 3.06, PBLUC_R_SQUARED 0.131, read-out: LUCIFERASE INFECTION ASSAY - IC50) worked out at 7.18 µM.
Consider `CC(C)[C@H](NC(=O)c1ccc(Cl)cc1)C(=O)OCC(=O)NCCc1ccc(S(N)(=O)=O)cc1`, for which the IC90 was over 10 µM. Besides, the IC50 (HEPG2TOX_HILL_SLOPE 0.118, HEPG2TOX_R_SQUARED 0.186, PBLUC_HILL_SLOPE 0.264, PBLUC_R_SQUARED 0.0178, read-out: LUCIFERASE INFECTION ASSAY - IC50) is over 10 µM.
For the molecule `COc1ccc(-c2cc(-c3ccc4ccccc4c3)n(C)c2-c2ccc(F)cc2)cc1`, the IC90 was over 8.1 µM. Further, the IC50 (FFLUC_HILL_SLOPE 0.642, FFLUC_R_SQUARED 0.523, PBLUC_HILL_SLOPE 1.6, PBLUC_R_SQUARED 0.413, read-out: LUCIFERASE INFECTION ASSAY - IC50) amounted to 2.69 µM.
As to `OC(c1ccc(F)c(Cl)c1)c1nnc(Nc2cc(C(F)(F)F)ccc2F)s1` (stereo not given), the IC90 is over 10 µM. Further, under “PBLUC_HILL_SLOPE 15.9, PBLUC_R_SQUARED 0.206, read-out: LUCIFERASE INFECTION ASSAY - IC50”, the concentration for half-maximal inhibition (IC50) was found to be 9.29 µM.
Consider `CNc1ncnc(NNC(=O)Nc2ccc(OC(F)(F)F)cc2)c1[N+](=O)[O-]`, for which the IC90 was over 8.52 µM. Also, the IC50 under setting [1] is 3.31 µM.
For the molecule `CN(CC(=O)Nc1ccc(-c2nnc3n2CCCCC3)cc1)C1CCS(=O)(=O)C1` (stereo not given), the IC90 was over 10 µM. For the same molecule, the IC50 under setting [1] is over 10 µM.
Consider `N#Cc1ccc(-c2cnc3ccc(NCc4ccc(S(N)(=O)=O)cc4)nn23)cc1`, for which the IC90 is 3.66 µM. The IC50 (HEPG2TOX_HILL_SLOPE 8.58, HEPG2TOX_R_SQUARED 0.551, PBLUC_HILL_SLOPE 11.6, PBLUC_R_SQUARED 0.236, read-out: LUCIFERASE INFECTION ASSAY - IC50) worked out at 3.03 µM.
In the case of `CCCCn1nnnc1COC(=O)c1ccccc1Sc1ccccc1C#N`, the IC90 is over 10 µM. For the same molecule, under setting [1], the 50% inhibitory concentration (IC50) was over 10 µM.
With `CSc1nccc(-c2ccc3c(c2)CCC(C)(C)O3)n1`, the IC90 was found to be 11 µM. Moreover, for the setting “PBLUC_HILL_SLOPE 0.747, PBLUC_R_SQUARED 0.886, read-out: LUCIFERASE INFECTION ASSAY - IC50”, the IC50 is 0.583 µM.
`O=C(CCn1ccnn1)Nc1ccc(Sc2ccc(Br)cc2)cc1`: the concentration for an effect of 90% (IC90) is over 10 µM. The IC50 (HEPG2TOX_HILL_SLOPE 6.85, HEPG2TOX_R_SQUARED 0.647, PBLUC_HILL_SLOPE 1.94, PBLUC_R_SQUARED 0.683, read-out: LUCIFERASE INFECTION ASSAY - IC50) stood at 6.08 µM.
For `COc1ccc(N(Cc2c(C#N)c(C)nn2-c2ccccc2)S(=O)(=O)c2ccc(C)cc2)cc1`, the IC90 was over 10 µM. Further, for the setting “HEPG2TOX_HILL_SLOPE 7.62, HEPG2TOX_R_SQUARED 0.552, PBLUC_HILL_SLOPE 10, PBLUC_R_SQUARED 0.432, read-out: LUCIFERASE INFECTION ASSAY - IC50”, the IC50 is 9.18 µM.
On to `Cc1ccc(C(C)C)c(Oc2nnnn2-c2ccccc2)c1`, for which the IC90 turned out to be 4.38 µM. For the same molecule, under “HEPG2TOX_HILL_SLOPE 3.94, HEPG2TOX_R_SQUARED 0.78, PBLUC_HILL_SLOPE 282, PBLUC_R_SQUARED 0.16, read-out: LUCIFERASE INFECTION ASSAY - IC50”, the IC50 was determined as 4.34 µM.
In the case of `Cc1nc2ccccc2n1CCC(=O)Nc1ccc2ccccc2c1`, the IC90 was over 10 µM. Also, the IC50 (PBLUC_HILL_SLOPE 2.97, PBLUC_R_SQUARED 0.444, read-out: LUCIFERASE INFECTION ASSAY - IC50) worked out at 7.73 µM.
For the molecule `O=C(NCCOc1ccc(Cl)cc1)c1ccc(=O)n(Cc2ccccc2)n1`, the IC90 was over 10 µM. The IC50 under setting [1] is over 10 µM.
For the molecule `CN(C)C(=O)c1cccc(-c2cn3c(-c4ccc(CO)cc4)cnc3cn2)c1`, the IC90 was over 8.86 µM. Besides, the IC50 (PBLUC_HILL_SLOPE 11.4, PBLUC_R_SQUARED 0.237, read-out: LUCIFERASE INFECTION ASSAY - IC50) came to 8.26 µM.
Regarding `CCN(CC)c1ccc(C(=O)NNS(=O)(=O)c2c(F)cc(F)c(Cl)c2F)cc1`, the IC90 is over 10 µM. Also, the IC50 (HEPG2TOX_HILL_SLOPE 9.38, HEPG2TOX_R_SQUARED 0.741, PBLUC_HILL_SLOPE 14.6, PBLUC_R_SQUARED 0.427, read-out: LUCIFERASE INFECTION ASSAY - IC50) came to 9.22 µM.
Turning to `CC(=O)c1ccc(NC(=O)Nc2ccc3nc(-c4cccc(C(F)(F)F)c4)nn3c2)cc1`, the IC90 came to 7.78 µM. Besides, under setting [1], the IC50 was found to be 3.53 µM.
Regarding `CCCCNC(=O)c1c(NC(=O)c2cccc(C(F)(F)F)c2)nc2ccc(C)cn12`, the IC90 is 1 µM. Under “FFLUC_HILL_SLOPE 2.04, FFLUC_R_SQUARED 0.518, HEPG2TOX_HILL_SLOPE 1.13, HEPG2TOX_R_SQUARED 0.759, PBLUC_HILL_SLOPE 2.77, PBLUC_R_SQUARED 0.788, read-out: LUCIFERASE INFECTION ASSAY - IC50”, the IC50 turned out to be 0.453 µM.
As to `CNc1nc2cnc(Nc3ccc(C(F)(F)F)cc3)cc2n1CC1CC1`, the IC90 was over 10 µM. In addition, the IC50 (PBLUC_HILL_SLOPE 1.2, PBLUC_R_SQUARED 0.377, read-out: LUCIFERASE INFECTION ASSAY - IC50) amounted to 2.12 µM.
In the case of `COc1cccc(N/N=C2\C=CC(=O)c3ncccc32)c1`, the IC90 amounted to 3.47 µM. Also, where the note is “HEPG2TOX_HILL_SLOPE 12.1, HEPG2TOX_R_SQUARED 0.589, PBLUC_HILL_SLOPE 8.94, PBLUC_R_SQUARED 0.612, read-out: LUCIFERASE INFECTION ASSAY - IC50”, the half-maximal inhibitory concentration (IC50) is 2.71 µM.
Consider `Cc1ccc(/C=C2\CCc3c2nc2ccccc2c3C(=O)OCc2cccc(S(=O)(=O)N(C)C)c2)cc1`, for which the IC90 is over 10 µM. For the same molecule, the IC50 (PBLUC_HILL_SLOPE 0.892, PBLUC_R_SQUARED 0.634, read-out: LUCIFERASE INFECTION ASSAY - IC50) is 1.2 µM.
With `c1ccc(SCc2ccc(-c3nc4ccccc4s3)cc2)nc1`, the IC90 is 8.53 µM. Further, the IC50 (HEPG2TOX_HILL_SLOPE 2.39, HEPG2TOX_R_SQUARED 0.939, PBLUC_HILL_SLOPE 0.884, PBLUC_R_SQUARED 0.644, read-out: LUCIFERASE INFECTION ASSAY - IC50) turned out to be 0.71 µM.
